Assay results taken from patent publication US9055743B2, “Alpha, beta-unsaturated imines” (BAYER INTELLECTUAL PROPERTY GMBH, priority 2010, dated 2015).

Columns and labels:
Type in all cases: in vivo
[1] = tested on: larvae of the mustard beetle (Phaedon cochleariae); test: Phaedon test (PHAECO spray treatment); conditions: 500 g/ha, spray, after 7 days
Method in brief: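 Chinese cabbage leaf discs sprayed with compound formulated in acetone/dimethylformamide with alkylaryl polyglycol ether emulsifier, diluted in emulsifier-containing water to the desired concentration. After drying, discs were populated with mustard beetle larvae.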

[2] = tested on: Anopheles funestus strain FUMOZ-R; conditions: 100 mg/m^2, two hours after contact, exposition 30 minutes
Method: Anopheles Test (ANPHFU Surface Treatment) Solvent: Acetone
To produce a suitable preparation of active compound, the active compound is dissolved in acetone (2 mg/ml). The active compound preparation is pipetted onto a glazed tile and, after drying, adult mosquitoes of the species Anopheles funestus strain FUMOZ-R (Hunt et al., Med Vet Entomol. 2005 September; 19(3):271-5) are placed onto the treated tile. The exposition time is 30 minutes.
Two hours after contact to the treated surface, the knock-down proportion of the test animals in % is determined.
24 hours after contact to the treated surface, the mortality in % is determined. Here, 100% means that all mosquitoes have been killed; 0% means that none of the mosquitoes has been killed.

[3] = tested on: Anopheles gambiae (homocygus kdr); test: Anopheles test (ANPHGB surface treatment); conditions: 100 mg/m^2, two hours after contact, exposition 30 minutes
Method in brief: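 Compound dissolved in acetone at 2 mg/ml, pipetted onto glazed tile and dried; adult kdr-homozygous mosquitoes exposed on the tile for 30 min. Knock-down (%) read 2 h and mortality (%) 24 h after contact.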

Aedes aegypti = test: Aedes test (AEDSAE surface treatment); conditions: 100 mg/m^2, two hours after contact, exposition 30 minutes
Method in brief: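 Compound dissolved in acetone (2 mg/ml) and dried onto a glazed tile; adult mosquitoes exposed for 30 minutes. Knock-down % scored at 2 hours and mortality % at 24 hours after contact (100% = all killed).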

[4] = tested on: caterpillars of the army worm (Spodoptera frugiperda); test: Spodoptera frugiperda test (SPODFR spray treatment); conditions: 500 g/ha, spray, after 7 days
Method in brief: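 Maize leaf discs sprayed with compound formulated in acetone/dimethylformamide plus alkylaryl polyglycol ether emulsifier and diluted in water, then infested with Spodoptera frugiperda caterpillars once dry. Mortality scored after 7 days as % activity, where 100% means all caterpillars killed.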

[5] = tested on: green peach aphid (Myzus persicae); test: Myzus test (MYZUPE spray treatment); conditions: 500 g/ha, spray, after 6 days
Method in brief: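 Chinese cabbage leaf discs infested with all aphid stages were sprayed with compound in acetone/DMF with emulsifier, diluted in emulsifier-containing water. Mortality in % assessed after 6 days (100% = all aphids killed).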

[6] = tested on: greenhouse red spider mite (Tetranychus urticae); test: Tetranychus test; OP-resistant (TETRUR spray treatment); conditions: 500 g/ha, spray, after 6 days
Method in brief: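 Bean leaf discs infested with all stages of OP-resistant Tetranychus urticae were sprayed with compound in acetone/DMF with alkylaryl polyglycol ether emulsifier, diluted in emulsifier-water. Mortality was scored after 6 days: 100% means all mites killed, 0% none.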

Cc1ccc(N=C2C(=CSc3ccccc3)C3CCC2C3)cc1 (centres unmarked) [Example 1-100]
100%: activity (beetle larvae killed) [1] | knock-down activity [2] | knock-down activity [3] | knock-down activity (Aedes aegypti) | activity (caterpillars killed) [4] | activity (aphids killed) [5]

Cc1ccc(N=C2C(=CSc3ccc(F)cc3)C3CCC2C3)cc1 (centres unmarked) [Example 1-40]
100%: activity (beetle larvae killed) [1] | knock-down activity [2] | activity (spider mites killed) [6] | knock-down activity [3] | knock-down activity (Aedes aegypti)
